Here are results for 17 compounds from patent publication US8394848B2, “Compounds that modulate intracellular calcium” (Calcimedica, Inc., priority 2008, dated 2013).

In this assay the test system is JR251 or RBL cells. Description: Store-operated calcium entry, either JR251 or RBL cells, or both. It is filed as cell-based. The method, boiled down: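 FLIPR calcium-entry readout in fluo-4-loaded cells held in Ca2+-free HBSS before calcium add-back. For RBL-2H3, store depletion used thapsigargin for 25 min after a 5 min compound pre-incubation, and IC50 was based on the 7 s Upslope. For Orai1/STIM1 stable cells, compound was pre-incubated 30 min and IC50 was based on Peak-Basal.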
With `O=C(Nc1scc(-c2cc3cccc(OCc4ccccc4)c3o2)c1C(=O)O)c1cc2ccccc2o1` [2-(benzofuran-2-carboxamido)-4-(7-(benzyloxy)benzofuran-2-yl)thiophene-3-carboxylic acid], the IC50 was below 10 µM.
The same measure for `N#Cc1cccc2cc(-c3csc(NC(=O)c4cc5ccccc5o4)c3C(=O)O)oc12` [2-(benzofuran-2-carboxamido)-4-(7-cyanobenzofuran-2-yl)thiophene-3-carboxylic acid]: below 10 µM; for `O=C(Nc1scc(-c2cc3cccc(O)c3o2)c1C(=O)O)c1cc2ccccc2o1` [2-(benzofuran-2-carboxamido)-4-(7-hydroxybenzofuran-2-yl)thiophene-3-carboxylic acid]: below 10 µM.
The same measure for `COc1cccc2cc(-c3csc(NC(=O)c4cc5ccccc5o4)c3C(=O)O)oc12` [2-(benzofuran-2-carboxamido)-4-(7-methoxybenzofuran-2-yl)thiophene-3-carboxylic acid]: below 10 µM; for `O=C(Nc1scc(-c2cc3ccccc3o2)c1C(=O)O)c1cc2ccccc2o1` [2-(benzofuran-2-carboxamido)-4-(benzofuran-2-yl)thiophene-3-carboxylic acid]: below 10 µM; for `O=C(Nc1scc(-c2ccc3occc3c2)c1C(=O)O)c1cc2ccccc2o1` [2-(benzofuran-2-carboxamido)-4-(benzofuran-5-yl)thiophene-3-carboxylic acid]: below 10 µM.
The result for `Cc1ccc(-c2csc(NC(=O)c3ccc4occc4c3)c2C(=O)O)c(F)c1F` [2-(benzofuran-5-carboxamido)-4-(2,3-difluoro-4-methylphenyl)thiophene-3-carboxylic acid] reads below 10 µM; that for `O=C(Nc1scc(-c2ccc(Br)c(F)c2F)c1C(=O)O)c1ccc2occc2c1` [2-(benzofuran-5-carboxamido)-4-(4-bromo-2,3-difluorophenyl)thiophene-3-carboxylic acid], below 10 µM; that for `O=C(Nc1scc(-c2ccc(Br)cc2)c1C(=O)O)OCc1ccccc1` [2-(benzyloxycarbonylamino)-4-(4-bromophenyl)thiophene-3-carboxylic acid], below 10 µM.
Take `O=C(Nc1scc(-c2ccc(Cl)cc2)c1C(=O)O)OCc1ccccc1` [2-(benzyloxycarbonylamino)-4-(4-chlorophenyl)thiophene-3-carboxylic acid]: the IC50 was below 10 µM.
The result for `O=C(O)c1c(-c2ccc(Cl)cc2Cl)csc1NC(=O)C1CC1` [2-(cyclopropanecarboxamido)-4-(2,4-dichlorophenyl)thiophene-3-carboxylic acid] reads below 10 µM; that for `O=C(O)c1c(-c2ccc(Cl)c(Cl)c2)csc1NC(=O)C1CC1` [2-(cyclopropanecarboxamido)-4-(3,4-dichlorophenyl)thiophene-3-carboxylic acid], below 10 µM; that for `Cc1ccc(-c2csc(NC(=O)c3ccc4ccccc4n3)c2C(=O)O)cc1` [2-(quinoline-2-carboxamido)-4-p-tolylthiophene-3-carboxylic acid], below 10 µM.
The result for `O=C(Nc1scc(-c2ccc(C(F)(F)F)cc2)c1C(=O)O)c1cccs1` [2-(thiophene-2-carboxamido)-4-(4-(trifluoromethyl)phenyl)thiophene-3-carboxylic acid] reads below 10 µM.
The same measure for `Cc1ccc(-c2csc(NC(=O)c3cccs3)c2C(=O)O)cc1` [2-(thiophene-2-carboxamido)-4-p-tolylthiophene-3-carboxylic acid]: below 10 µM.
In the case of `Cc1ccc(-c2csc(NC(=O)c3ccsc3)c2C(=O)O)cc1` [2-(thiophene-3-carboxamido)-4-p-tolylthiophene-3-carboxylic acid], the IC50 was below 10 µM.
The same measure for `Cc1ccc(-c2csc(NC(=O)c3nc4c(F)cccc4o3)c2C(=O)O)c(F)c1F` [4-(2,3-difluoro-4-methylphenyl)-2-(4-fluorobenzo[d]oxazole-2-carboxamido)thiophene-3-carboxylic acid]: below 10 µM.
